Patent US20050197383A1, “Quaternary ammonium compounds and their use as anti-tussive agents” (UCB Farchim S.A., priority 1999, published 2005)

Tested on: citric acid-induced cough responses
Assay: citric acid-induced cough in conscious guinea-pigs (aerosol pre-treatment)
Type: in vivo, guinea-pig
Conditions: aerosol 10.0 mg/ml pre-treatment immediately before citric acid (1M) exposure; 15 minute observation period
From the text: The following method is one of the general methods available to determine the antitussive activity of the compounds of the present invention.
Male albino Dunkin-Hartley strain guinea-pigs (weight 300-400 g) can be obtained from various commercial suppliers.
The method is a modification of that described by Adcock J. J., Schneider C. and Smith T. W., “Effects of Morphine and a Novel Opioid Pentapeptide BW443C, on Cough, Nociception and Ventilation in the Unanaesthetized Guinea-pig”, Br. J. Pharmacol., 93, 93-100 (1988). […]
Cylinder air is introduced into the exposure chamber at a flow rate of 1 liter/min, maintained by a needle valve and monitored by a rotameter. […]
Cough responses are induced by exposure to an aerosol of citric acid (1M) for 10 minutes. Animals are continuously monitored by trained observer, and the number of coughs are counted during a 15 minute period from commencement of the citric acid aerosol administration. […]
The three types of response are differentiated primarily by sound and visual observation. […] Each cough is marked on the Grass polygraph paper trace, and from these record numbers, frequency and time of onset of coughs are determined. […]
Quantities of drugs are weighed out and dissolved in a vehicle. […] The sequence of pre-treatment administration is determined according to a 4×4 Latin Square design. […]

With CC(C)[N+](C)(C)CC(O)COc1cccc2ccccc12.[I-] (stereo not shown) [N,N-dimethyl-propranolol iodide, 2-Hydroxy-N-isopropyl-N,N-dimethyl-3-(1-naphthyloxy)propan-1-aminium iodide] as the molecule, how does the “inhibition of cough responses compared with vehicle (saline) pre-treated guinea pigs” value read?
Its value is 50-70%.
